pIC50: −log10 of the molar value. The source made the active and inactive calls. The rule behind the calls is not given here.
Key:
CCRF-CEM [1] = experiment: Antiproliferative against human CCRF-CEM cells incubated for 72 hrs by MTT assay; assay type: functional, cell-based
U-937 = experiment: Antiproliferative against human U937 cells incubated for 72 hrs by MTT assay; assay type: functional, cell-based; settings: U-937, 72 h
K562 = experiment: Antiproliferative against human K562 cells incubated for 72 hrs by MTT assay; assay type: functional, cell-based; settings: K562, 72 h
[2] = target: DNA topoisomerase II (Homo sapiens) (UniProt P11388+Q02880); experiment: Inhibition of DNA topoisomerase-2 (unknown origin) at 100 uM relative to control; assay type: protein assay
CCRF-CEM [3] = experiment: Induction of apoptosis in human CCRF-CEM cells at 0.5 to 2 uM incubated for 48 hrs by Hoechst 33342/PI staining based fluorescence based assay; assay type: functional, cell-based
CCRF-CEM [4] = experiment: Induction of apoptosis in human CCRF-CEM cells assessed as increase in early apoptotic cells at 0.5 uM incubated for 48 hrs by Annexin V-FITC/PI staining based fluorescence based assay; assay type: functional, cell-based
[5] = target: T1, DNA topoisomerase 1 (Homo sapiens) (UniProt P11387); experiment: Inhibition of DNA topoisomerase-1 (unknown origin) at 100 uM relative to control
T1 sequence (whole entry): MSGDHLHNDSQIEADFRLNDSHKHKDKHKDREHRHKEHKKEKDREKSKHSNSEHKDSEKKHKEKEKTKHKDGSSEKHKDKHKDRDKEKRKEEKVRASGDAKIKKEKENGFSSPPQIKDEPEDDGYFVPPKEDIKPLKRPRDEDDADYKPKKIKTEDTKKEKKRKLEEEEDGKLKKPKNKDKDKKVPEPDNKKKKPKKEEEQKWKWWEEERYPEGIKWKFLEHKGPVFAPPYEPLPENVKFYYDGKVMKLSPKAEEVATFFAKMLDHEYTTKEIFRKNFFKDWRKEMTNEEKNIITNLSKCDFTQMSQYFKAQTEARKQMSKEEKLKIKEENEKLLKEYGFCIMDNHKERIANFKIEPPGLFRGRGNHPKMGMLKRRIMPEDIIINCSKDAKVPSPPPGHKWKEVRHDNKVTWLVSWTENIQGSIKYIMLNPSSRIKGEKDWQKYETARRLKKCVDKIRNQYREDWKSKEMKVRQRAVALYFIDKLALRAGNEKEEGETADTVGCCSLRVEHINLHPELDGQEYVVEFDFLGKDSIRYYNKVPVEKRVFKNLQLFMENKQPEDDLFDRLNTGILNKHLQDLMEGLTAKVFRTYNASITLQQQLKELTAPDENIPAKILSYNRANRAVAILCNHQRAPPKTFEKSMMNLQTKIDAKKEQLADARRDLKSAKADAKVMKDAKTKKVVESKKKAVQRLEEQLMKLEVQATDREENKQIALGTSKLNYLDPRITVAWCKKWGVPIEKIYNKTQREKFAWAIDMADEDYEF

CCRF-CEM [6] = experiment: Induction of apoptosis in human CCRF-CEM cells assessed as increase in necrotic cells incubated for 48 hrs by Annexin V-FITC/PI staining based fluorescence based assay; assay type: functional, cell-based
CCRF-CEM [7] = experiment: Induction of DNA damage in human CCRF-CEM cells assessed as increase in gammaH2AX incubated for 48 hrs by Western blot analysis; assay type: functional, cell-based
CCRF-CEM [8] = experiment: Induction of apoptosis in human CCRF-CEM cells assessed as increase in late apoptotic cells incubated for 48 hrs by Annexin V-FITC/PI staining based fluorescence based assay; assay type: functional, cell-based
CCRF-CEM [9] = experiment: Induction of apoptosis in human CCRF-CEM cells assessed as increase in early apoptotic cells at 2 uM incubated for 48 hrs by Annexin V-FITC/PI staining based fluorescence based assay; assay type: functional, cell-based
CCRF-CEM [10] = experiment: Induction of apoptosis in human CCRF-CEM cells at 0.5 to 2 uM incubated for 48 hrs by Annexin V-FITC/PI staining based fluorescence based assay; assay type: functional, cell-based

Question: With `NCc1ccc(C(=O)Nc2ccccc2)cc1` as the molecule, how does the pIC50 (CCRF-CEM [1]) read?
Answer: The pIC50 was less than 5.00.

Question: What about the pIC50 (U-937) of the same molecule?
Answer: The pIC50 was less than 5.00.

Question: And the pIC50 (K562)?
Answer: Its pIC50 is less than 5.00.

Question: Which results are given for `COc1ccccc1NC(=O)c1ccc(CNc2c3ccccc3nc3ccccc23)cc1`?
Answer: pIC50 (CCRF-CEM [1]): 5.89; pIC50 (U-937): 5.83; pIC50 (K562): 6.04

Question: How did the inhibition [2] turn out when `COc1cc([C@@H]2c3cc4c(cc3[C@@H](O[C@@H]3O[C@@H]5CO[C@@H](C)O[C@H]5[C@H](O)[C@H]3O)[C@H]3COC(=O)[C@H]23)OCO4)cc(OC)c1O` was run?
Answer: Its inhibition is 40.9%.

Question: With `COc1ccc2nc3cc(Cl)ccc3c(Cl)c2c1` as the molecule, how does the pIC50 (CCRF-CEM [1]) read?
Answer: Its pIC50 is less than 5.00.

Question: And the pIC50 (U-937)?
Answer: The pIC50 was less than 5.00.

Question: What about the pIC50 (K562) of the same molecule?
Answer: Its pIC50 is less than 5.00.

Question: Which results are given for `COc1ccc2c(NCc3ccc(C(=O)Nc4ccccc4)cc3)c3ccccc3nc2c1`?
Answer: pIC50 (CCRF-CEM [1]): 6.05; pIC50 (U-937): 5.85; pIC50 (K562): 5.88

Question: With `COc1cccc2c(NCc3ccc(C(=O)Nc4ccccc4)cc3)c3ccccc3nc12` as the molecule, how does the pIC50 (CCRF-CEM [1]) read?
Answer: Its pIC50 is 6.05.

Question: What about the pIC50 (U-937) of the same molecule?
Answer: Its pIC50 is 6.64.

Question: What about the pIC50 (K562) of the same molecule?
Answer: Its pIC50 is 5.84.

Question: With `COc1cc(NS(C)(=O)=O)ccc1Nc1c2ccccc2nc2ccccc12` [AMSACRINE] as the molecule, how does the pIC50 (CCRF-CEM [1]) read?
Answer: Its pIC50 is 7.52.

Question: And the pIC50 (U-937)?
Answer: The pIC50 was 7.10.

Question: And the pIC50 (K562)?
Answer: Its pIC50 is 6.15.

Question: What does the source list for `COc1ccc2nc3cc(Cl)ccc3c(NCc3ccc(C(=O)Nc4ccccc4)cc3)c2c1`?
Answer: pIC50 (CCRF-CEM [1]): 5.89; pIC50 (U-937): 5.74; pIC50 (K562): 5.63

Question: `COc1ccc2nc3ccccc3c(NCc3ccc(C(=O)Nc4ccccc4)cc3)c2c1` was tested. Which inhibition [2] did it give?
Answer: The inhibition was 17.8%.

Question: What about the Activity (CCRF-CEM [3]) of the same molecule?
Answer: Its Activity is “Active”.

Question: And the Activity (CCRF-CEM [4])?
Answer: Its Activity is “Active”.

Question: What about the pIC50 (CCRF-CEM [1]) of the same molecule?
Answer: Its pIC50 is 6.09.

Question: What about the inhibition [5] of the same molecule?
Answer: Its inhibition is 7.2%.

Question: And the Activity (CCRF-CEM [6])?
Answer: The Activity was “Dose-dependent effect”.

Question: And the pIC50 (U-937)?
Answer: The pIC50 was 6.48.

Question: What about the pIC50 (K562) of the same molecule?
Answer: Its pIC50 is 5.91.

Question: And the Activity (CCRF-CEM [7])?
Answer: The Activity was “Dose-dependent effect”.

Question: And the Activity (CCRF-CEM [8])?
Answer: Its Activity is “Dose-dependent effect”.

Question: What about the Activity (CCRF-CEM [9]) of the same molecule?
Answer: The Activity was “Active”.

Question: What does the source list for `O=C(Nc1ccccc1)c1ccc(CNc2c3ccccc3nc3ccccc23)cc1`?
Answer: inhibition [2]: 24%; pIC50 (CCRF-CEM [1]): 5.81; inhibition [5]: 44.9%; Activity (CCRF-CEM [10]): Active; pIC50 (U-937): 5.88; pIC50 (K562): 5.81
